Converted amounts (≈) assume the structure as drawn.
These compounds were tested against EGFR (UniProt P00533).
EGFR, sequence (P00533 whole entry, looked up): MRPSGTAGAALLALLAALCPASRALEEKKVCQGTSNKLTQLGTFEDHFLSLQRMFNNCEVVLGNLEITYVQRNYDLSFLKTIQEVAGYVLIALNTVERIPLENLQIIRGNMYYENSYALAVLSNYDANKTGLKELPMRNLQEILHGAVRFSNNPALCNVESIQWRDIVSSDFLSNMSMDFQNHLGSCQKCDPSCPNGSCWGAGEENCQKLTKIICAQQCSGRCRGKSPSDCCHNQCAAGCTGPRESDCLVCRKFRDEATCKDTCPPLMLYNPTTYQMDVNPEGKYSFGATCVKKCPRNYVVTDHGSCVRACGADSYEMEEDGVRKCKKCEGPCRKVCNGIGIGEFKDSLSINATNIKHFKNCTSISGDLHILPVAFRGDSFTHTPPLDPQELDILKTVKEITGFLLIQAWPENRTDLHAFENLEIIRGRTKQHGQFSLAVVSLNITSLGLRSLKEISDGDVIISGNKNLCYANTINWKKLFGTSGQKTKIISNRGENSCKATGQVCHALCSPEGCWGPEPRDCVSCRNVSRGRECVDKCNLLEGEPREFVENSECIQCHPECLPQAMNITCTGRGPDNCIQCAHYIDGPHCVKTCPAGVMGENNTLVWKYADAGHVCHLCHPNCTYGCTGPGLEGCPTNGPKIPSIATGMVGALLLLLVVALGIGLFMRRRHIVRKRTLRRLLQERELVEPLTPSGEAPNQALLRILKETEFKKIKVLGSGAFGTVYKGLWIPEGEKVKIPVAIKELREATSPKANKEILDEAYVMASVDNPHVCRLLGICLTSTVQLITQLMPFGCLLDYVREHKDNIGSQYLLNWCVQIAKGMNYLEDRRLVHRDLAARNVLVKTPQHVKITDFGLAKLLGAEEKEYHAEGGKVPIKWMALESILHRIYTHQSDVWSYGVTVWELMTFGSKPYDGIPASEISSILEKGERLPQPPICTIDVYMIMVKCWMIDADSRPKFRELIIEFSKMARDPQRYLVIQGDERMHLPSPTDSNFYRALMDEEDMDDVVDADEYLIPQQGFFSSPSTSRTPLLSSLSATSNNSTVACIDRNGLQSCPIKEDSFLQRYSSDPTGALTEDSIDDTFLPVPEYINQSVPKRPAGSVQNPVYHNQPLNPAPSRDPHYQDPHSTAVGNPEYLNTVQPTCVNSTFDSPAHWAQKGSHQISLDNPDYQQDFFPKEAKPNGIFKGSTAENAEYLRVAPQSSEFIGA

Which IC50 does the source give for COc1cc(Nc2ncnc(Cc3ccc4c(cnn4Cc4ccccc4)c3)n2)cc(OC)c1OCCN1CCOCC1 here?
The IC50 was under 0.4 µg/mL.

How did the IC50 turn out when NC(=O)c1ccc(Nc2ncnc(-n3c(=O)[nH]c4ccccc43)n2)cc1 was run?
Its IC50 is over 4.5 µg/mL.

For COc1cc(Nc2ncnc(Nc3ccc(F)c(Cl)c3)n2)cc(OC)c1OC, which IC50 is on record?
Its IC50 is under 0.4 µg/mL.

How did the IC50 turn out when COc1cc2ccn(-c3ncnc(Nc4cc(OC)c(OC)c(OC)c4)n3)c2cc1OC was run?
The IC50 was 3.5 to 4.5 µg/mL (≈ 8 to 10.3 µM).

How did the IC50 turn out when O=c1[nH]c2ccccc2n1-c1ncnc(Nc2ccccn2)n1 was run?
The IC50 was over 4.5 µg/mL.

With c1ccc(Nc2ncccc2-c2ncnc(Nc3cccc(Cn4ccnn4)c3)n2)cc1 as the compound, how does the IC50 read?
The IC50 was over 4.5 µg/mL.

Clc1ncnc(Nc2cc(-c3ccccc3)n[nH]2)n1 was tested. Which IC50 did it give?
Its IC50 is over 4.5 µg/mL.

Which IC50 does the source give for CCOC(=O)N1CCC(Nc2ncnc(N3CCCc4cc(C)ccc43)n2)CC1 here?
Its IC50 is over 4.5 µg/mL.

COc1cc(Nc2ncnc(-n3ccc4cc(OCc5ccccc5)ccc43)n2)cc(OC)c1OC was tested. Which IC50 did it give?
Its IC50 is over 4.5 µg/mL.

How did the IC50 turn out when CC1CCc2ccccc2N1c1ncnc(N2c3ccccc3CCC2C)n1 (centres undefined) was run?
The IC50 was 2.4 to 3.5 µg/mL (≈ 6.46 to 9.42 µM).

How did the IC50 turn out when Fc1ccc(Nc2ncnc(-n3cccc3)n2)cc1 was run?
The IC50 was over 4.5 µg/mL.

Which IC50 does the source give for O=c1[nH]c2ccccc2n1-c1ncnc(Nc2ccc3[nH]ncc3c2)n1 here?
The IC50 was over 4.5 µg/mL.

For COc1cc(Nc2ncnc(-c3ccnc(N4CCCCC4)c3)n2)cc(OC)c1OC, which IC50 is on record?
Its IC50 is over 4.5 µg/mL.

Which IC50 does the source give for COC(=O)Cc1cccc(Nc2ncnc(-n3c(NCc4ccccn4)nc4ccccc43)n2)c1 here?
The IC50 was over 4.5 µg/mL.

How did the IC50 turn out when COc1cc(Nc2ncnc(-c3ccccc3)n2)cc(OC)c1 was run?
The IC50 was over 4.5 µg/mL.

c1ccc(CNc2ncccc2-c2ncnc(Nc3ccc(N4CCOCC4)cc3)n2)cc1 was tested. Which IC50 did it give?
Its IC50 is over 4.5 µg/mL.

How did the IC50 turn out when COc1cc(Nc2ncnc(-n3c(NCc4ccccn4)nc4ccccc43)n2)cc(OCCN2CCOCC2)c1OC was run?
The IC50 was over 4.5 µg/mL.

For COc1cccc(NC(=O)Nc2ncnc(Nc3cc(OC)c(OC)c(OC)c3)n2)c1, which IC50 is on record?
The IC50 was over 4.5 µg/mL.

With COC(=O)c1ccc(-c2cc(Nc3ncnc(Nc4cccc5ncccc45)n3)[nH]n2)cc1 as the compound, how does the IC50 read?
The IC50 was over 4.5 µg/mL.

How did the IC50 turn out when O=C(O)Cc1cccc(Nc2ncnc(-n3c(NCc4ccccn4)nc4ccccc43)n2)c1 was run?
The IC50 was over 4.5 µg/mL.

Which IC50 does the source give for COc1cc(Nc2ncnc(Nc3[nH]ncc3-c3cccs3)n2)cc(OC)c1OC here?
The IC50 was over 4.5 µg/mL.

With Fc1ccc(Nc2ncnc(Cl)n2)cc1Cl as the compound, how does the IC50 read?
Its IC50 is over 4.5 µg/mL.

With COc1cc(Nc2ncnc(N3CCc4ccccc4C3)n2)cc(OC)c1OC as the compound, how does the IC50 read?
The IC50 was over 4.5 µg/mL.

With Nc1nc2ccccc2n1-c1ncnc(Nc2cccc(CC(=O)NCc3ccccn3)c2)n1 as the compound, how does the IC50 read?
Its IC50 is over 4.5 µg/mL.

With COc1ccc(Nc2ncccc2-c2ncnc(Nc3cc(OC)c(OC)c(OC)c3)n2)c(C)c1 as the compound, how does the IC50 read?
The IC50 was over 4.5 µg/mL.

COc1ccc2c(ccn2-c2ncnc(Nc3cc(OC)c(OC)c(OC)c3)n2)c1 was tested. Which IC50 did it give?
The IC50 was 3.5 to 4.5 µg/mL (≈ 8.59 to 11 µM).

Which IC50 does the source give for CN(C)c1ccc(Nc2ncnc(-n3c(N)nc4ccccc43)n2)cc1 here?
Its IC50 is 2.4 to 3.5 µg/mL (≈ 6.93 to 10.1 µM).

How did the IC50 turn out when COc1cc(Nc2ncnc(-c3cccnc3NCc3ccccn3)n2)cc(OC)c1OC was run?
Its IC50 is over 4.5 µg/mL.

With COc1cc(Nc2ncnc(N3CCc4ccccc43)n2)cc(OC)c1OC as the compound, how does the IC50 read?
The IC50 was over 4.5 µg/mL.

Which IC50 does the source give for Nc1nc2ccccc2n1-c1ncnc(Nc2ccc(Cl)c(Cl)c2)n1 here?
Its IC50 is 0.4 to 2.4 µg/mL (≈ 1.07 to 6.45 µM).

How did the IC50 turn out when CC(C)Nc1ncccc1-c1ncnc(Nc2ccc(N3CCOCC3)cc2)n1 was run?
Its IC50 is 0.4 to 2.4 µg/mL (≈ 1.02 to 6.13 µM).

Which IC50 does the source give for COCCOc1ccc(Nc2ncnc(Nc3ccc(C)c(O)c3)n2)cc1OC here?
Its IC50 is under 0.4 µg/mL.

Which IC50 does the source give for COc1cc(Nc2ncnc(-n3c(Nc4ccccc4C(N)=O)nc4ccccc43)n2)cc(OC)c1OC here?
The IC50 was over 4.5 µg/mL.

For C=CCNc1cc(-c2ncnc(Nc3cc(OC)c(OC)c(OC)c3)n2)ccn1, which IC50 is on record?
Its IC50 is over 4.5 µg/mL.

COc1ccc(Nc2ncnc(N(C)c3cccc(Cl)c3)n2)cc1OC was tested. Which IC50 did it give?
Its IC50 is under 0.4 µg/mL.

How did the IC50 turn out when COc1cc(Nc2ncnc(-c3cccc4ccccc34)n2)cc(OC)c1OC was run?
Its IC50 is over 4.5 µg/mL.

How did the IC50 turn out when COc1cc(Nc2ncnc(-c3cccnc3NC(C)c3ccccc3)n2)cc(OC)c1OC (centres undefined) was run?
The IC50 was over 4.5 µg/mL.

For c1coc(-c2cc(Nc3ncnc(Nc4nc[nH]n4)n3)n[nH]2)c1, which IC50 is on record?
The IC50 was 0.4 to 2.4 µg/mL (≈ 1.29 to 7.73 µM).

How did the IC50 turn out when COc1cc(Nc2ncnc(Nc3ccc(O)cc3)n2)cc(OC)c1OC was run?
Its IC50 is 0.4 to 2.4 µg/mL (≈ 1.08 to 6.5 µM).

For COc1cc(Nc2ncnc(-n3c(Nc4ccc(F)cc4)nc4ccccc43)n2)cc(OC)c1OC, which IC50 is on record?
The IC50 was over 4.5 µg/mL.

With COc1cc(Nc2ncnc(Nc3cc(F)cc(C(F)(F)F)c3)n2)cc(OC)c1OC as the compound, how does the IC50 read?
The IC50 was under 0.4 µg/mL.

Which IC50 does the source give for COC(=O)c1cc(OC)c(OC)cc1Nc1ncnc(-n2c(N)nc3ccccc32)n1 here?
The IC50 was over 4.5 µg/mL.

How did the IC50 turn out when O=c1[nH]c2ccccc2n1-c1ncnc(Nc2ccc(Cl)cc2)n1 was run?
Its IC50 is over 4.5 µg/mL.

How did the IC50 turn out when O=c1[nH]c2ccccc2n1-c1ncnc(Nc2cccc(S(=O)(=O)CCO)c2)n1 was run?
The IC50 was over 4.5 µg/mL.

How did the IC50 turn out when CN(c1cccc(Cl)c1)c1ncnc(Cl)n1 was run?
The IC50 was over 4.5 µg/mL.

COc1cc(Nc2ncnc(-c3cccnc3NCC3CCCCC3)n2)cc(OC)c1OC was tested. Which IC50 did it give?
Its IC50 is over 4.5 µg/mL.

For COc1cc(Nc2ncnc(Nc3ccc(N4CCCCC4)cc3)n2)cc(OC)c1OC, which IC50 is on record?
Its IC50 is 0.4 to 2.4 µg/mL (≈ 0.916 to 5.5 µM).

How did the IC50 turn out when NC(=O)c1ccc(Nc2ncnc(Nc3cc(-c4ccco4)n[nH]3)n2)cc1 was run?
Its IC50 is 2.4 to 3.5 µg/mL (≈ 6.62 to 9.66 µM).

How did the IC50 turn out when COc1cc(Nc2ncnc(Nc3nc(-c4ccccc4)cs3)n2)cc(OC)c1OC was run?
The IC50 was over 4.5 µg/mL.

COc1cccc(Nc2ncnc(-c3cccs3)n2)n1 was tested. Which IC50 did it give?
Its IC50 is over 4.5 µg/mL.

COC(=O)c1ccc(-c2cc(Nc3ncnc(NCCc4ccc(OC)cc4)n3)[nH]n2)cc1 was tested. Which IC50 did it give?
The IC50 was over 4.5 µg/mL.

With CN(c1ccc(F)c(Cl)c1)c1ncnc(Nc2cccc(Br)c2)n1 as the compound, how does the IC50 read?
The IC50 was over 4.5 µg/mL.

Which IC50 does the source give for COc1cc(Nc2nc3ccccc3n2-c2ncnc(Nc3cc(OC)c(OC)c(OC)c3)n2)cc(OC)c1 here?
Its IC50 is over 4.5 µg/mL.

Which IC50 does the source give for CCOC(=O)c1cccc(Nc2ncnc(Nc3cc(-c4ccc(C(=O)OC)cc4)n[nH]3)n2)c1 here?
Its IC50 is over 4.5 µg/mL.

From the Kinase Knowledgebase extract (Sharma et al. 2016)
